Measured values published in US20250289879A1, “THERAPEUTIC MODULATION OF GENES IN MYELOID LINEAGE CELLS AND USES THEREOF IN OPHTHALMOLOGY” (The Children's Medical Center Corporation, priority 2022, published 2025).

Columns and labels:
OIR mice = experiment: Oxygen-induced retinopathy (OIR) mouse model, NV and VO areas on retinal flat mounts; type: in vivo
Method: OIR was carried out using neonatal mice as described previously (Smith et al., 1994). Briefly, mouse pups with nursing female mice were exposed to 75% oxygen from postnatal day (P) 7 to 12, then returned to room air until to P17 for phenotypical analysis and gene expression at indicated time. For phenotypical analysis, the retinas were collected at P17, dissected, and stained with fluorescent dye conjugated-Griffonia Simplicifolia Isolectin IB4 (Invitrogen) overnight and flat-mounted. The avascular (vasoobliteration, VO) and pathological neovascularization (NV) areas were quantified (Connor et al., 2009) by masked researchers using Image J (National Institutes of Health, imagej.nih.gov/ij/) and Adobe Photoshop (Adobe Systems). The exclusion criteria for the OIR mouse model was used as described previously. Mice with bodyweight less than 5 grams at P17 were excluded from the study (Stahl et al., 2010).
OIR was carried out using neonatal mice as described previously^81. Briefly, mouse pups with nursing female mice were exposed to 75% oxygen from postnatal day (P) 7 to 12, then returned to room air until P17 for phenotypical analysis and gene expression analysis at indicated times. For phenotypical analysis, the retinas were collected at P17, dissected, and stained with fluorescent dye conjugated with Griffonia Simplicifolia Isolectin IB4 (Invitrogen) overnight and flat-mounted. The avascular (vaso-obliteration, VO) and pathological NV areas were quantified^82 by masked researchers using Image J (National Institutes of Health) and fully automated deep learning segmentation method^83. The exclusion criteria for the OIR mouse model were used as previously described^84.
SOCS3 agonist, naringenin (400 mg/kg/day, gavage) 49, and control reagents were administrated to C57BL/6J OIR mice from P12 to P16. SOCS3 peptidomimetic and negative control (NC) peptides were synthesized and purified as described 74. […] The identity and purity of main products were evaluated by LC-MS and purified compounds were lyophilized and stored at −20° C. until use. […]

SOCS3 = settings: reported (refs 56, 57, 49); cited from earlier work
laser-induced CNV mice = settings: previously reported (ref 49), vs control treatment; cited from earlier work

SMILES: O=C1C[C@@H](c2ccc(O)cc2)Oc2cc(O)cc(O)c21 [naringenin]
- effect on retinal neovascularization (NV), in words (OIR mice; OIR retinas at P17, vs control treatment): significantly reduced NV
- effect on vaso-obliteration (VO) / blood vessel loss, in words (OIR mice; OIR retinas, vs control treatment): without influencing VO
- reduction of NV at P17 compared to controls (OIR mice; naringenin treatment from P12 to P16, 400 mg/kg/day, C57BL/6J OIR mice): about 50%
- SOCS3 expression, in words (SOCS3): induces SOCS3 expression
- effect on laser-induced CNV, in words (laser-induced CNV mice): significantly suppresses laser-induced CNV
